This note sets out measurements from ChEMBL document CHEMBL1240315, “Allosteric inhibition of kinesin-5 modulates its processive directional motility” (Nat Chem Biol, 2006).

Assay [1] deals with T1, Kinesin-like protein KIF11 (Homo sapiens) (UniProt P52732).
T1 sequence (whole entry): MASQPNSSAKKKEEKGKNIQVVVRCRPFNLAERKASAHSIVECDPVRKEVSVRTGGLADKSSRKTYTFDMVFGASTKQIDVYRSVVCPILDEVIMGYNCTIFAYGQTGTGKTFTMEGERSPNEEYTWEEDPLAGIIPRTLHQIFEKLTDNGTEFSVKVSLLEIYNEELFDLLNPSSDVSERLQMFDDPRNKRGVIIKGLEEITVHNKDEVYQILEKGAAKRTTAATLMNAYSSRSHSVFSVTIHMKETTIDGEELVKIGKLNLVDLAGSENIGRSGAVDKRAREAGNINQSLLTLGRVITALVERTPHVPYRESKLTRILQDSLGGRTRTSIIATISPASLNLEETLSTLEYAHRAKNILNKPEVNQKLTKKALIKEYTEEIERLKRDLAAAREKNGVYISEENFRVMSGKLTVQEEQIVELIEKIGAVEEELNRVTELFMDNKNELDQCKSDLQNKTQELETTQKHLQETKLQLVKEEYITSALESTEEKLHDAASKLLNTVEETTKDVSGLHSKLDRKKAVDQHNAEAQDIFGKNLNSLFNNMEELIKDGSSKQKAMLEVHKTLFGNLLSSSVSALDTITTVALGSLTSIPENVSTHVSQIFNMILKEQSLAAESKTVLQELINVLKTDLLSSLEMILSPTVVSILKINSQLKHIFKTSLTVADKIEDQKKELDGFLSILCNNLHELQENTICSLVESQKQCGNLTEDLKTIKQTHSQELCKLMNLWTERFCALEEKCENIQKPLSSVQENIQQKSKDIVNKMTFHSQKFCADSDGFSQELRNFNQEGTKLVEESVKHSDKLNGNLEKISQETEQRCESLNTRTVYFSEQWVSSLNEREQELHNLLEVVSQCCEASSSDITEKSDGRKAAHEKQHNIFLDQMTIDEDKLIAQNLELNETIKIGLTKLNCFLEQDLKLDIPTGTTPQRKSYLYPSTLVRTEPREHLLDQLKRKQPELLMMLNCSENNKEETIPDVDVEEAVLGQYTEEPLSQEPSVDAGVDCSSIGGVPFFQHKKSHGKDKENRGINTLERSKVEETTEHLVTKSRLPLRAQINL
As to conditions: 25 uM.
Description: Inhibition of recombinant Eg5-GFP in cell-free system assessed as Eg5 motility speed on microtubule at 25 uM by mean square displacement analysis in presence of 2 mM ATP

The target of assay [2] is T1, Kinesin-like protein KIF11 (Homo sapiens). As to conditions: 100 uM.
Description: Inhibition of recombinant Eg5-GFP in cell-free system assessed as Eg5 motility speed on microtubule at 100 uM by mean square displacement analysis in presence of 2 mM ATP
For assay [3] the target is unchanged. As to conditions: 100 uM. This is another data set of the same source.
Description: Inhibition of recombinant Eg5-GFP in cell-free system assessed as reduction of Eg5 motility speed on microtubule at 100 uM by kymograph analysis
Assay [4] shares this target. As to conditions: 100 uM. This is another data set of the same source.
Description: Inhibition of recombinant Eg5-GFP in cell-free system assessed as reduction in mean duration of Eg5-GFP-microtubule interaction at 100 uM by kymograph analysis
Assay [5] shares this target. The conditions noted are these: 100 uM. The source holds these as a separate data set.
Description: Inhibition of recombinant Eg5-GFP in cell-free system assessed as Eg5-GFP movement along microtubules without directionality at 100 uM by mean square displacement analysis in presence of 2 mM ADP
The target is the same in assay [6]. Kind of assay: Binding affinity to recombinant Eg5-GFP in cell-free system assessed as Eg5-GFP movement along microtubules without directionality at 2 mM by kymograph analysis.
The target is the same in assay [7]. Kind of assay: Binding affinity to recombinant Eg5-GFP in cell-free system assessed as Eg5-GFP movement along microtubules without directionality at 2 mM by mean square displacement analysis.

The source made the active and inactive calls. The rule behind the calls is not given here.

`CCOC(=O)C1=C(C)NC(=S)NC1c1cccc(O)c1` (configuration not stated): the values for the Activity (nanometer2/sec) in assay [1], in assay [2] and in assay [5] were 1460, 2140 and 3820, respectively. Moreover, the inhibition entry in assay [3] and in assay [4] was “inactive” in each case.
`Nc1ncnc2c1ncn2[C@@H]1O[C@H](COP(=O)(O)OP(=O)(O)O)[C@@H](O)[C@H]1O`: the values for the Activity (nanometer2/sec) in assay [6] and in assay [7] were 4 and 771, respectively.
